Assays:
tubulin = details: resulting in inhibition of microtubule depolymerization and tumor cell proliferation; cited from earlier work
[1] = system: tumor models poorly or not sensitive to chemotherapy, including taxanes; details: cited from earlier work
[2] = system: patient with metastatic prostate cancer; assay: case reports of patients treated with cabazitaxel in combination with prednisone or prednisolone (adverse events); details: for WBC level: units not provided
Protocol: This example relates to the treatment of a patient with metastatic prostate cancer, according the following dosage: cabazitaxel (25 mg/m^2)+prednisone 10 mg daily+budesonide (9 mg daily).
This example relates to a patient (with prostate carcinoma) who initiated treatment with study drug cabazitaxel (20 mg/m^2) and prednisone (10 mg) (cycle 1).
This example relates to the treatment of a patient with a metastatic carcinoma of the prostate, according the following dosage: cabazitaxel 20 mg/m^2 intravenously (day 1) every 3 weeks and prednisone 10 mg PO daily, from day 1 continuously.
The treatment was as follows: cabazitaxel 20 mg/m^2 on day 1 every 3 weeks in combination with prednisone/prednisolone.
The following treatment was followed: cabazitaxel 25 mg/m^2 on day 1 every 3 weeks in combination with prednisone/prednisolone.
The dosage regimen was as follows: cabazitaxel 25 mg/m^2 intravenous infusion over 1 hour on day 1 of each 3 week cycle as well as oral prednisone/prednisolone 10 mg daily.
The following treatment was applied: cabazitaxel 20 mg/m^2 intravenously every 3 weeks, in combination with oral prednisone or prednisolone 10 mg daily.
This example relates to a patient with metastatic prostate cancer. The following treatment was followed: cabazitaxel 25 mg/m^2 intravenously (day 1) every 3 weeks and prednisone 10 mg PO daily, from day 1 continuously.
This patient was treated with cabazitaxel 20 mg/m^2 on day 1 every 3 weeks in combination with prednisone/prednisolone.
The following therapy dosage was used: cabazitaxel 25 mg/m^2 intravenously (day 1) every 3 weeks, plus prednisone 10 mg orally daily.
The therapy was as follows: the patient received cabazitaxel 25 mg/m^2 intravenous infusion over 1 hour on day 1 of each 3 week cycle as well as oral prednisone/prednisolone 10 mg daily.
The following dosage regimen was used: cabazitaxel 25 mg/m^2 on day 1 every 3 weeks in combination with prednisone/prednisolone.
This example relates to a patient with metastatic castration resistant prostate cancer not pretreated with chemotherapy. The following therapy was applied: cabazitaxel 25 mg/m^2 intravenously (day 1) every 3 weeks. Prednisone 10 mg PO daily, from day 1 continuously.
This example relates to a patient with metastatic castration resistant prostate cancer not pretreated with chemotherapy, having the following therapy: cabazitaxel 25 mg/m^2 intravenously (day 1) every 3 weeks and prednisone 10 mg PO daily, from day 1 continuously.
This example relates to a patient with metastatic castration resistant prostate cancer not pre-treated with chemotherapy. The following therapy was applied: cabazitaxel 20 mg/m^2 intravenously (day 1) every 3 weeks, prednisone 10 mg PO daily, from day 1 continuously.
The following dosage regimen was applied: cabazitaxel 25 mg/m^2 intravenously every 3 weeks, in combination with oral prednisone or prednisolone 10 mg daily.
The therapy involved the administration of cabazitaxel on day 1 every 3 weeks in combination with prednisone.
The following therapy was applied: cabazitaxel 25 mg/m^2 on day 1 every 3 weeks in combination with prednisolone.
The following dosage regimen was applied: cabazitaxel 20 mg/m^2 intravenously (day 1) every 3 weeks and prednisone 10 mg PO daily, from day 1 continuously.
The following dosage regimen was applied: cabazitaxel 20 mg/m^2 on day 1 every 3 weeks in combination with prednisolone.
The following dosage regimen was applied: cabazitaxel 25 mg/m^2 on day 1 every 3 weeks in combination with prednisone.
The applied dosage regimen was as follows: cabazitaxel 25 mg/m^2 intravenous infusion over 1 hour on day 1 of each 3 week cycle as well as oral prednisone 10 mg daily.

[3] = system: patients treated with cabazitaxel; details: cited from earlier work
[4] = Ex 3, cabazitaxel 25 mg/m^2 + prednisone + budesonide
[5] = Ex 5, cabazitaxel 20 mg/m^2 + prednisone, cycle 4, day 5
[6] = Ex 5, cabazitaxel 20 mg/m^2 + prednisone, during hospitalization
[7] = Ex 7, cabazitaxel 25 mg/m^2 + prednisone
[8] = Ex 7, cabazitaxel 25 mg/m^2 + prednisone, day 9 of first cycle
[9] = Ex 12, cabazitaxel 25 mg/m^2 + prednisone
[10] = Ex 16, cabazitaxel 25 mg/m^2 + prednisolone
[11] = Ex 16, cabazitaxel 25 mg/m^2 + prednisolone, five days after hospitalization
[12] = Ex 20, cabazitaxel 25 mg/m^2 + prednisolone, after intensive care
[13] = Ex 20, cabazitaxel 25 mg/m^2 + prednisolone, on admission

CO[C@H]1C(=O)[C@]2(C)[C@@H](OC)C[C@H]3OC[C@@]3(OC(C)=O)[C@H]2[C@H](OC(=O)c2ccccc2)[C@]2(O)C[C@H](OC(=O)[C@H](O)[C@@H](NC(=O)OC(C)(C)C)c3ccccc3)C(C)=C1C2(C)C [cabazitaxel, 4α-acetoxy-2α-benzoyloxy-5β,20-epoxy-1β-hydroxy-7β,10β-dimethoxy-9-oxo-11-taxen-13α-yl (2R,3S)-3-tert-butoxycarbonyl-amino-2-hydroxy-3-phenylpropionate]
action on tubulin (tubulin): binds to and stabilizes tubulin
activity in tumor models [1]: active
control fibrogastroscopy finding ([2]; Ex 1, cabazitaxel 20 mg/m^2 + prednisone, ten days after antisecretory and antiulcer therapy): atrophic gastritis
outcome of event ([2]; Ex 1, cabazitaxel 20 mg/m^2 + prednisone, ten days after onset of epigastric pain): fully recovered
adverse event complained of ([2]; Ex 1, patient, cabazitaxel 20 mg/m^2 every 3 weeks + prednisone 10 mg daily, 15th day of cycle 1): epigastric pain
fibrogastroduodenoscopy finding ([2]; Ex 1, patient, cabazitaxel 20 mg/m^2 every 3 weeks + prednisone 10 mg daily, two days after 15th day of cycle 1): acute ulcer in the small curvature
colonic spasm (grade) ([2]; Ex 2, cabazitaxel 20 mg/m^2 + prednisone, during 7th cycle): grade 2 to grade 1
outcome of colitis ([2]; Ex 2, cabazitaxel 20 mg/m^2 + prednisone, three days later): recovered
colitis (grade) ([2]; Ex 2, patient, cabazitaxel 20 mg/m^2 every 3 weeks + prednisone 10 mg daily, 75 days after first, 6 days after most recent dose (cycle 4)): 3
colitis (grade) [2, 4]: 2
outcome of events [2, 4]: no more episodes of SVT or diarrhea
white blood cell (WBC) ([2]; Ex 3, cabazitaxel 25 mg/m^2 + prednisone + budesonide, 45 days after first dose, normal 4-10): 6.9
haemoglobin ([2]; Ex 3, cabazitaxel 25 mg/m^2 + prednisone + budesonide, 45 days after first dose, normal 8.5-11): 7.3
creatinine ([2]; Ex 3, cabazitaxel 25 mg/m^2 + prednisone + budesonide, 45 days after first dose, normal 60-110): 94
supraventricular tachycardia with angina (grade) ([2]; Ex 3, cabazitaxel 25 mg/m^2 + prednisone + budesonide, 45 days after first, 3 days after most recent dose): 3
sigmoidoscopy finding ([2]; Ex 3, cabazitaxel 25 mg/m^2 + prednisone + budesonide, six days later): severe colitis
diarrhea ([2]; Ex 3, patient, cabazitaxel 25 mg/m^2 + prednisone 10 mg daily + budesonide 9 mg daily, 43 days after first, 1 day after most recent dose): slight diarrhea
neutropenia ([2]; Ex 4, cabazitaxel 20 mg/m^2 + prednisone, during enterocolitis): no neutropenia
outcome of event ([2]; Ex 4, cabazitaxel 20 mg/m^2 + prednisone, three days later): recovered
enterocolitis (grade) ([2]; Ex 4, patient, cabazitaxel 20 mg/m^2 + prednisone 10 mg, 145 days after first, 7 days after most recent dose (cycle 7)): 3
gastritis (grade) [2, 5]: 2
nausea (grade) [2, 5]: 2
WBC decrease (grade) [2, 6]: 3
WBC level [2, 6]: 2720
outcome of events ([2]; Ex 5, cabazitaxel 20 mg/m^2 + prednisone, leukopenia three days after corrective treatment, hypotension, nausea and gastritis one day later): recovered
WBC level ([2]; Ex 5, cabazitaxel 20 mg/m^2 + prednisone, on the day after): 1000
hypotension (grade) ([2]; Ex 5, patient, cabazitaxel 20 mg/m^2 every 3 weeks + prednisone 10 mg daily, cycle 4, day 5): 2
pneumonia (grade) ([2]; Ex 6, cabazitaxel 20 mg/m^2 + prednisone, day 7 of cycle 1): 4
outcome ([2]; Ex 6, cabazitaxel 20 mg/m^2 + prednisone, one day later, due to paralytic ileus and pneumonia): died
paralytic ileus (grade) ([2]; Ex 6, patient, cabazitaxel 20 mg/m^2 every 3 weeks + prednisone, day 4 of cycle 1): 4
time to recovery from colitis [2, 7]: 9 days
time to recovery from neutropenia [2, 7]: 5 days
diarrhea with blood in feces, number of episodes [2, 8]: more than 10 episodes
neutropenia (grade) [2, 8]: 4
colitis (grade) ([2]; Ex 7, cabazitaxel 25 mg/m^2 + prednisone, neutropenic colitis, day 9 of first cycle): 3
absolute neutrophil count ([2]; Ex 7, patient, cabazitaxel 25 mg/m^2 every 3 weeks + prednisone 10 mg, day 9 of first cycle): 0.01
clostridium difficile infection (grade) ([2]; Ex 8, cabazitaxel 25 mg/m^2 + prednisone/prednisolone): 3
neutropenia (grade) ([2]; Ex 8, cabazitaxel 25 mg/m^2 + prednisone/prednisolone, 5th day of cycle 1): 3
outcome ([2]; Ex 8, cabazitaxel 25 mg/m^2 + prednisone/prednisolone, six days later): recovered
neutropenia (grade) ([2]; Ex 8, cabazitaxel 25 mg/m^2 + prednisone/prednisolone, two days later): 4
diarrhea (grade) ([2]; Ex 8, patient, cabazitaxel 25 mg/m^2 every 3 weeks + prednisone/prednisolone 10 mg daily, 5th day of cycle 1): 2
outcome ([2]; Ex 9, cabazitaxel 20 mg/m^2 + prednisolone, 5 days after initial hospitalization): death
neutrophil count ([2]; Ex 9, cabazitaxel 20 mg/m^2 + prednisolone, day following admission): 0.4
neutropenic colitis (grade) ([2]; Ex 9, cabazitaxel 20 mg/m^2 + prednisolone, final diagnosis): 4
diagnosis at hospitalization ([2]; Ex 9, patient, cabazitaxel 20 mg/m^2 every 3 weeks + prednisolone 10 mg daily, four days after second administration): acute bowel obstruction
neutropenic colitis (grade) ([2]; Ex 10, cabazitaxel 25 mg/m^2 + prednisone): 4
neutrophil count ([2]; Ex 10, cabazitaxel 25 mg/m^2 + prednisone, one day later, normal 1.4-7.7): 1e+08 L⁻¹
fever (grade) ([2]; Ex 10, cabazitaxel 25 mg/m^2 + prednisone, readmission two days after discharge): 1
outcome of event ([2]; Ex 10, cabazitaxel 25 mg/m^2 + prednisone, three days after readmission): resolved
diarrhea (grade) ([2]; Ex 10, patient, cabazitaxel 25 mg/m^2 every 3 weeks + prednisone 10 mg daily, 7 days after first cycle): 2
diagnosis ([2]; Ex 11, cabazitaxel 20 mg/m^2 + prednisone/prednisolone, nine days after last dose): Neutropenic infection (colitis)
platelet count ([2]; Ex 11, cabazitaxel 20 mg/m^2 + prednisone/prednisolone, nine days after last dose, NR 150×10^3-450×10^3): 93 ×10^3 cells/mm^3
CRP ([2]; Ex 11, cabazitaxel 20 mg/m^2 + prednisone/prednisolone, nine days after last dose, NR <0.5): 0.39 mg/dL
neutrophils ([2]; Ex 11, cabazitaxel 20 mg/m^2 + prednisone/prednisolone, nine days after last dose, normal 1.7×10^3-8.0×10^3): 1.12 ×10^3 cells/mm^3
outcome ([2]; Ex 11, cabazitaxel 20 mg/m^2 + prednisone/prednisolone, two days after admission): recovered
WBC ([2]; Ex 11, patient, cabazitaxel 20 mg/m^2 every 3 weeks + prednisone/prednisolone, nine days after last dose, normal 3.5×10^3-10.5×10^3): 2.41 ×10^3 cells/mm^3
enterocolitis (grade) [2, 9]: 4
febrile neutropenia (grade) [2, 9]: 4
renal failure (grade) [2, 9]: 4
septic shock (grade) [2, 9]: 4
outcome ([2]; Ex 12, cabazitaxel 25 mg/m^2 + prednisone, 2 days after admission, septic shock secondary to neutropenic enterocolitis): expired
fever ([2]; Ex 12, cabazitaxel 25 mg/m^2 + prednisone, 13 days after first dose): 38.5 °C
lower abdominal pain (grade) ([2]; Ex 12, patient, cabazitaxel 25 mg/m^2 every 3 weeks + prednisone 10 mg daily, 13 days after first dose): 3
outcome ([2]; Ex 13, cabazitaxel 25 mg/m^2 + prednisone/prednisolone, cause of death reported as progression of disease): died
diagnosis at hospitalization ([2]; Ex 13, patient, cabazitaxel 25 mg/m^2 every 3 weeks + prednisone/prednisolone 10 mg daily, ten days after first cycle): neutropenic enterocolitis and sepsis
outcome ([2]; Ex 14, cabazitaxel 25 mg/m^2 + prednisone, nine days after hospitalization): recovered
adverse event ([2]; Ex 14, patient, cabazitaxel 25 mg/m^2 every 3 weeks + prednisone, 232 days after first, 14 days after most recent dose (cycle 9)): neutropenic enteritis
outcome ([2]; Ex 15, cabazitaxel 25 mg/m^2 + prednisone, 4 days later): recovered
video coloscopy finding ([2]; Ex 15, cabazitaxel 25 mg/m^2 + prednisone, bacteriological tests later negative): probable infectious colitis
rectal bleeding (grade) ([2]; Ex 15, cabazitaxel 25 mg/m^2 + prednisone, cycle 6, 111 days after first, 6 days after last administration): 1
diarrhea (grade) ([2]; Ex 15, patient, cabazitaxel 25 mg/m^2 every 3 weeks + prednisone 10 mg daily, 108 days after first administration): 1
SAH (subarachnoid hemorrhage) (grade) [2, 10]: 2
urinary tract infection (grade) [2, 10]: 3
gastritis, final diagnosis (grade) ([2]; Ex 16, cabazitaxel 25 mg/m^2 + prednisolone, day 17 of cycle 1): 3
DIC (grade) [2, 11]: 4
INR [2, 11]: 1.6
outcome of gastritis ([2]; Ex 16, cabazitaxel 25 mg/m^2 + prednisolone, three days later): recovered
ulcus ventriculi, initial suspicion (grade) ([2]; Ex 16, patient, cabazitaxel 25 mg/m^2 every 3 weeks + prednisolone 10 mg, day 17 of cycle 1): 3
outcome ([2]; Ex 17, cabazitaxel 20 mg/m^2 + prednisone, seven days after hospitalization): recovered
adverse event (confirmed by emergency surgery) ([2]; Ex 17, patient, cabazitaxel 20 mg/m^2 every 3 weeks + prednisone 10 mg daily, 42 days after first, 21 days after most recent dose, life-threatening): perforation of ulcer
outcome of duodenal ulcers ([2]; Ex 18, cabazitaxel 25 mg/m^2 + prednisone or prednisolone): recovered
acute cystitis (grade) ([2]; Ex 18, cabazitaxel 25 mg/m^2 + prednisone or prednisolone, day 26 of cycle 1): 1
duodenal ulcers (grade) ([2]; Ex 18, patient, cabazitaxel 25 mg/m^2 every 3 weeks + prednisone or prednisolone 10 mg daily, four days after day 16 of cycle 1): 1
haematocrit ([2]; Ex 19, cabazitaxel + prednisone, 128 days after first dose, reference 42-52): 16.33%
digestive haemorrhage (grade) ([2]; Ex 19, cabazitaxel + prednisone, 128 days after first, 20 days after last dose, life threatening): 4
outcome ([2]; Ex 19, cabazitaxel + prednisone, discharged 9 days after hospitalization): recovered
haemoglobin ([2]; Ex 19, patient, cabazitaxel every 3 weeks + prednisone, 128 days after first, 20 days after last dose, reference 13.0-16.0): 51.2 g/L
haematocrit [2, 12]: 19.5%
haemoglobin [2, 12]: 72 g/L
platelets [2, 12]: 142 ×10^9
outcome ([2]; Ex 20, cabazitaxel 25 mg/m^2 + prednisolone, fifteen days after hospitalization): recovered
haematocrit [2, 13]: 19%
haemoglobin [2, 13]: 59 g/L
platelet ([2]; Ex 20, cabazitaxel 25 mg/m^2 + prednisolone, thirteen days after hospitalization, units not specified, 180-320 thousand in 1 mcl): 122
intestinal haemorrhage (grade) ([2]; Ex 20, patient, cabazitaxel 25 mg/m^2 every 3 weeks + prednisolone, 17 days after first dose, life threatening): 4
adverse event during hospital stay ([2]; Ex 21, cabazitaxel 20 mg/m^2 + prednisone): febrile neutropenia
outcome ([2]; Ex 21, cabazitaxel 20 mg/m^2 + prednisone, one day after discharge): recovered
small bowel obstruction (grade) ([2]; Ex 21, patient, cabazitaxel 20 mg/m^2 every 3 weeks + prednisone 10 mg daily, cycle 2, most likely secondary to adhesions): 4
outcome ([2]; Ex 22, cabazitaxel 20 mg/m^2 + prednisolone, three days later, after laproscopy): recovered
small intestinal obstruction (grade) ([2]; Ex 22, patient, cabazitaxel 20 mg/m^2 every 3 weeks + prednisolone, cycle 9, 181 days after first, 13 days after most recent dose): 3
general weakness (grade) ([2]; Ex 23, cabazitaxel 25 mg/m^2 + prednisone): 3
red blood loss per anum (grade) ([2]; Ex 23, cabazitaxel 25 mg/m^2 + prednisone, 85 days after first, 1 day after most recent dose): 1
outcome ([2]; Ex 23, cabazitaxel 25 mg/m^2 + prednisone, 117 days after first dose, due to disease progression): died
pathologic fracture lumbar spine 1 (grade) ([2]; Ex 23, cabazitaxel 25 mg/m^2 + prednisone, five days after day 95): 3
outcome of red blood loss per anum and hematuria ([2]; Ex 23, cabazitaxel 25 mg/m^2 + prednisone, two days after hospitalization): recovered
hematuria (grade) ([2]; Ex 23, patient, cabazitaxel 25 mg/m^2 every 3 weeks + prednisone, 85 days after first, 1 day after most recent dose): 3
outcome ([2]; Ex 24, cabazitaxel 25 mg/m^2 + prednisone, about a month after hospitalization, unknown cause, colitis ongoing): died
time to resolution of ileus ([2]; Ex 25, cabazitaxel 20 mg/m^2 + prednisone): 13 days
mechanical ileus due to unclear cause (grade) ([2]; Ex 25, cabazitaxel 20 mg/m^2 + prednisone, 215 days after first, 6 days after most recent dose): 2
diagnosis ([2]; Ex 25, patient, cabazitaxel 20 mg/m^2 every 3 weeks + prednisone 10 mg daily, 214 days after first dose): ileus
gastrointestinal adverse reactions reported [3]: Gastrointestinal (GI) hemorrhage and perforation, ileus, colitis, including fatal outcome
